One assay concerns NIH/3T3 cells. The experiment in a line: Microtubule regrowth assay, NIH/3T3. As to conditions: NIH/3T3, 5 minutes after washout. It counts as cell-based, mouse. As for the experimental part: Microtubule regrowth assay. […] Cells were seeded onto coverslips in 12-well plates and treated with 16 μM nocodazole for 4 hours to depolymerize microtubules. Wells were washed 6 times with PBS to remove the nocodazole, and fresh, pre-warmed medium was added to each well. After 5 minutes of recovery, cells were fixed with 100% methanol (−20° C., 5 minutes) and stained with antibodies against γ-tubulin and α-tubulin. Coverslips were mounted onto slides and imaged on a DeltaVision microscope (Applied Precision) with a 60×1.42 NA PlanApo objective and CoolSnap camera (Photometrics). Image deconvolution was performed in softWoRx (Applied Precision) and subsequent processing was performed in ImageJ (NIH).

The subject of assay [1] is Xenopus multiciliated cells. The experiment in a line: Multiciliation assay in Xenopus embryos. It counts as in vivo. As for the experimental part: Multiciliation assay in Xenopus embryos. Xenopus embryos were obtained by in vitro fertilization using standard protocols (49) approved by the Northwestern University Institutional Animal Care and Use Committee. Fertilized Xenopus embryos were injected with mRNA encoding the centriole marker Centrin4-GFP (333 pg/embryo) and a Dexamethasone-inducible Multicilin (hGR 3′MCI; 160 pg/embryo) (50, 51). […] Embryos were treated for 13 hours at room temperature, fixed in 4% paraformaldehyde and treated with the actin stain phalloidin. Confocal image stacks were collected using a Nikon AIR microscope and centriole numbers were manually quantified in Nikon Elements software. For each condition, centriole numbers were quantified from approximately 100 cells from at least 3 embryos.

The next assay concerns the target T1, Aurora B (Homo sapiens, UniProt Q96GD4).
T1 construct: Reaction Biology (Malvern, Pa.), contract assay
Put plainly: Aurora B radiometric kinase assay (Reaction Biology). It counts as biochemical. As to the method: Aurora B and other radiometric kinase assays were performed by Reaction Biology (Malvern, Pa.).

Another assay concerns RPE1 cells. Put plainly: Passaging assay and flow cytometry, RPE1. It counts as cell-based, human. As for the experimental part:
Passaging assays. Cells were seeded into 10 cm tissue culture plates at 150,000 (HeLa, NIH/3T3 and RPE1) or 200,000 cells/plate (primary fibroblasts). Compounds were added at the indicated concentrations. At 4-day intervals, cells were harvested, counted using a TC10 cell counter, and re-seeded into new plates at the densities above. Results are from 2 independent experiments.
Flow cytometry. Cells were seeded into 15 cm tissue culture plates such that each plate was 50-80% confluent at the time of harvesting. Cells were de-adhered by trypsinization and pelleted in 15 ml tubes by centrifugation. Each pellet was resuspended in 0.3 mL PBS, and 0.7 mL ice-cold 100% ethanol was added to the tube while gently vortexing. Fixed cells were stored at 4° C. for up to 2 weeks. For DNA content analysis, fixed cells were pelleted, washed twice with PBS, and resuspended in 0.5 mL PBS+2% BSA and Alexa488-conjugated anti-p-H3(Ser10) antibody. Samples were incubated for 1 hour at 4° C., then washed twice with PBS+2% BSA. Pellets were resuspended in 1 mL PBS+2% BSA, 10 μg/ml propidium iodide (Sigma-Aldrich), 500 µg/ml RNAse A (Thermo Scientific). Samples were incubated at 37° C. for 30 minutes, then transferred to 12×75 mm tubes for analysis. Data were acquired using FACSDiva software on a LSR II flow cytometer (BD Biosciences). 50,000 cells were analyzed per condition. Cell cycle fitting was performed using ModFit LT (Verity Software House).

In assay [2] the test system is full-length mouse Plk4-YFP. Put plainly: Plk4 stabilization assay, Plk4-YFP DLD-1 cells. The class given is cell-based, human. Conditions: 25 nM or 100 nM, 24 hours. As to the method:
Plk4 stabilization assay. Expression was induced in Plk4-YFP DLD-1 cells using 1 μg/ml doxycycline. At the same time, cells were treated with the indicated concentrations of compounds. Cells were incubated for 24 hours before harvesting for Western blotting (see below).
Western blotting. […] Cell extracts were stored at −80° C. until use.

A further assay relates to Plk4. Put plainly: Plk4 intensity at centrosomes, HeLa. It counts as cell-based, human. As to conditions: 125 nM, 8 hours. The text has this:
FIGS. 13A-13D. Centriole number set points arise from a dynamic equilibrium between centriole overduplication and removal of cells with extra centrioles. […] Yellow arrowheads mark centrin foci. Each frame was acquired at NEBD when the centrosomes are optimally distributed for counting. Times in the bottom left of each panel are in minutes relative to NEBD in the mother cell. Scale bar, 10 μm. (FIG. 13B) Histogram of mitotic outcomes for HeLa cells with <2, 2 or >2 centrosomes. The fates of daughter cells arising from 2-centrosome bipolar mitosis, multi-centrosome bipolar mitosis, and multi-centrosome multipolar mitosis are shown below. Data are mean+/−SD (N=2). […] Intervals are based on the time of NEBD in the mother cells. The diagonal line represents the 2:1 ratio expected under normal conditions; points above or below this line correspond to over- or under-duplication, respectively. […] Boxed regions are magnified 2.3× in panels below. Scale bar, […]. The Plk4 intensity at centrosomes was quantified and normalized to the intensity in untreated cells. Data are mean+/−SD (N=3).

A further assay concerns the target T2, TNK1 (Homo sapiens, UniProt Q13470).
T2 construct: Reaction Biology (Malvern, Pa.), contract assay
T2 sequence (Q13470 1-666): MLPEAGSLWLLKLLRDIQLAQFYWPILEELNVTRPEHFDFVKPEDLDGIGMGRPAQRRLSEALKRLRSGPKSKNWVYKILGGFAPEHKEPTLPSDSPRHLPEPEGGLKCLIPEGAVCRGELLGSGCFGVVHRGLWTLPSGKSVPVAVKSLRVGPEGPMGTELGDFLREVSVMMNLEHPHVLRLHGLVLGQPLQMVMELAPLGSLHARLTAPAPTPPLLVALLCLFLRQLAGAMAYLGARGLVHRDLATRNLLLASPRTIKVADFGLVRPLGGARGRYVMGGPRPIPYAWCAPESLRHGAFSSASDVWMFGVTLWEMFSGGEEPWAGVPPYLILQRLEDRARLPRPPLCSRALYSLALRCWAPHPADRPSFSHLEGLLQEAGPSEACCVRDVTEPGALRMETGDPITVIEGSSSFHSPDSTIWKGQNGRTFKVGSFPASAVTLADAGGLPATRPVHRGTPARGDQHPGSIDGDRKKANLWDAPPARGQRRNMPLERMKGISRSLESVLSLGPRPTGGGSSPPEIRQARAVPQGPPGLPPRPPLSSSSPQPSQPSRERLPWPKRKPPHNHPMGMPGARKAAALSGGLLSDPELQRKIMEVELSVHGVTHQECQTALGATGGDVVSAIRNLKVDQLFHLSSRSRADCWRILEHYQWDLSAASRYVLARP
The experiment in a line: Radiometric kinase assay, off-target TNK1. Conditions: off-target from DiscoveRx kinome profiling. It counts as biochemical. As to the method:
(§1) Aurora B and other radiometric kinase assays were performed by Reaction Biology (Malvern, Pa.). Kinome profiling of centrinone and centrinone-B was performed by DiscoveRx (San Diego, Calif.).

A further assay addresses T3, RET (Homo sapiens, UniProt P07949).
T3 construct: Reaction Biology (Malvern, Pa.), contract assay
Put plainly: Radiometric kinase assay, off-target RET. It counts as biochemical. As to conditions: off-target from DiscoveRx kinome profiling. As to the method: as §1

Like-named read-outs stand apart in the source and are kept apart here.

This note sets out measurements from patent US10752612B2, “PLK4 inhibitors” (LUDWIG INSTITUTE FOR CANCER RESEARCH LTD, priority 2015, dated 2020).

T3 sequence (P07949 29-1114): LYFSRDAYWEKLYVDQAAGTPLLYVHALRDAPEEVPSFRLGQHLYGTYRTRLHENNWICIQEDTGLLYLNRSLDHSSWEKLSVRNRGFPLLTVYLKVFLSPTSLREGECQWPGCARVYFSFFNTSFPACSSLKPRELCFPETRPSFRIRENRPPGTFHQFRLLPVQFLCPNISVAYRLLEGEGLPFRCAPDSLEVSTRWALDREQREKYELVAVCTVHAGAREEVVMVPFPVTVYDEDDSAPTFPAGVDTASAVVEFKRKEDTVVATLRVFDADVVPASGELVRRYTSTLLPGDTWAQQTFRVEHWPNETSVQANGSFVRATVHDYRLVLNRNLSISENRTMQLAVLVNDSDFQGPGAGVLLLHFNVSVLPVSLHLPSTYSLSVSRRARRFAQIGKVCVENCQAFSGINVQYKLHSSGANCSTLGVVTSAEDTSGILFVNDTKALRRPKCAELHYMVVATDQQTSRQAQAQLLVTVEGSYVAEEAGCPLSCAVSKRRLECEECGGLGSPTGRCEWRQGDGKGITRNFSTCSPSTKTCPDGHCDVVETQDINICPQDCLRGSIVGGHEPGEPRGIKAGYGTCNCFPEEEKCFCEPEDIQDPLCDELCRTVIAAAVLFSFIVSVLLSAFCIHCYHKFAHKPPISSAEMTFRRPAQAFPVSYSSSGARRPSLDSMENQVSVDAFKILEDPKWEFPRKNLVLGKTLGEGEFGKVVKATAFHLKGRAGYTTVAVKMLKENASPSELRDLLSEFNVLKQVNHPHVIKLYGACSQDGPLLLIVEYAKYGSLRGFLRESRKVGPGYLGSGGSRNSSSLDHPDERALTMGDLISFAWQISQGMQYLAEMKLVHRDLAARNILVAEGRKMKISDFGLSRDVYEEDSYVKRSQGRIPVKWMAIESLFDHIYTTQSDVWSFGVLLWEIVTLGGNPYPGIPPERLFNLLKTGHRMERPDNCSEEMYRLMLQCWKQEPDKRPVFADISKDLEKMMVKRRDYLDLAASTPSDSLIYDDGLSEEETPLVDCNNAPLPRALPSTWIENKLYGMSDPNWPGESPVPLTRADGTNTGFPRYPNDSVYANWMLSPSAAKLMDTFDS
T1 sequence (Q96GD4 whole entry): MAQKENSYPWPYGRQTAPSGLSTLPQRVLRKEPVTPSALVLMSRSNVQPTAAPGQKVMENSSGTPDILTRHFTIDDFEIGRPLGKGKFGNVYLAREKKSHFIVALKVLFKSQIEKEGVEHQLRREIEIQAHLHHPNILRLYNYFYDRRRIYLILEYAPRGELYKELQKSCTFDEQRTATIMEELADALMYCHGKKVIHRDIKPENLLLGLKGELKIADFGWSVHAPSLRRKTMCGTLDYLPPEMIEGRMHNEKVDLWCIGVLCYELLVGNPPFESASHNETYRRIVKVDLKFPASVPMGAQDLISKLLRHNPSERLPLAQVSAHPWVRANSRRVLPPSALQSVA

With `COc1c(Nc2cc(C)[nH]n2)nc(Sc2ccc(S(=O)(=O)Cc3cccc([N+](=O)[O-])c3F)cc2F)nc1N1CCOCC1` [Centrinone, 2-((2-fluoro-4-((2-fluoro-3-nitrobenzyl)sulfonyl)phenyl)thio)-5-methoxy-N-(5-methyl-1H-pyrazol-3-yl)-6-morpholinopyrimidin-4-amine], the “microtubule organization after nocodazole washout” value in the assay on NIH/3T3 cells is recorded as “short microtubules form throughout the cytoplasm”. Also, the “centriole number in multiciliated cells” value in assay [1] was “dramatically reduced centriole numbers”; in assay [1] (listed as centrinone), “reduced centriole number”. The figures for the inhibition constant Ki on Aurora B, at TNK1 and at RET were 437 nM, 1.38 nM and 13.9 nM, respectively. Further, in the assay with RPE1 cells (RPE1, 12-day passaging assay and flow cytometry), the “cell cycle after centrosome depletion” value is reported as “cell cycle arrest in G1”. Moreover, the proliferation after washout entry with RPE1 cells (RPE1, addition Day 0, washout Day 8) was “did not”. The Plk4-YFP stabilization entry in assay [2] is “more substantial stabilization”. For the same compound, in the assay with Plk4, the “Plk4 level at the centrosome” value was “double”.

One may read the Ki as a dissociation constant, usually derived from enzyme kinetics or from competition with a known ligand.
